Source: US20230302104A1, “TREATMENT AND/OR PREVENTION OF A DISEASE OR A SYNDROME RELATED TO A VIRUS INFECTION” (priority 2020, published 2023)

Tested on: SARS-CoV pseudovirus entry in ACE2 overexpressing A549 human lung alveolar basal epithelium cells
Format: cell-based

rhAAT
SARS-CoV pseudovirus entry: inhibits viral entry of several viruses
